# Activity calls are given as the source filed them. No cut-off for these calls is given here.
# How the values were obtained:
# [1] = Toxicity in BALB/c nude mouse xenografted with human NCI-H446 cells assessed as reduction in body weight at high dose administered intragastrically once a week for 28 days and measured three times a week; details: in vivo, po, 672 h, route ig, time 28 day
# NCI-H446 [2] = assay: Induction of apoptosis in human NCI-H446 cells assessed as downregulation of survivin protein expression at 0.1 to 100 nM measured for 48 hrs by Western blot analysis; type: functional, cell-based; details: dose 0.1-100 nM
# H69AR [3] = assay: Induction of apoptosis in human NCI-H69AR cells assessed as reduction in survivin mRNA expression at 0.1 to 100 nM incubated for 24 hrs by RT-PCR analysis; type: functional, cell-based; details: dose 0.1-100 nM
# NCI-H446 [4] = assay: Induction of apoptosis in human NCI-H446 cells assessed as early apoptotic cells at 10 nM incubated for 24 hrs by AnnexinV-FITC/PI staining based flow cytometry analysis (reference value: 3.1 %); type: functional
# NCI-H446 [5] = assay: Induction of apoptosis in human NCI-H446 cells assessed as early apoptotic cells at 1 nM incubated for 24 hrs by AnnexinV-FITC/PI staining based flow cytometry analysis (reference value: 3.1 %); type: functional
# NCI-H446 [6] = assay: Antiproliferative activity against Irinotecan-resistant human NCI-H446 cells assessed as inhibition of cell growth incubated for 72 hrs by SRB assay; type: functional, cell-based; details: NCI-H446, 72 h
# SW-620 = assay: Antiproliferative activity against human SW-620 cells assessed as inhibition of cell growth incubated for 72 hrs by SRB assay; type: functional, cell-based; details: SW-620, 72 h
# SH-SY5Y = assay: Antiproliferative activity against human SH-SY5Y cells assessed as inhibition of cell growth incubated for 72 hrs by SRB assay; type: functional, cell-based
# NCI-H69 [7] = assay: Antiproliferative activity against human NCI-H69 cells assessed as inhibition of cell growth incubated for 72 hrs by SRB assay; type: functional, cell-based; details: NCI-H69, 72 h
# NCI-H446 [8] = assay: Induction of apoptosis in human NCI-H446 cells assessed as dead cells at 10 nM incubated for 24 hrs by AnnexinV-FITC/PI staining based flow cytometry analysis (reference value: 0.22 %); type: functional
# H69AR [9] = assay: Induction of apoptosis in human NCI-H69AR cells assessed as dead cells at 100 nM incubated for 24 hrs by AnnexinV-FITC/PI staining based flow cytometry analysis (reference value: 1.92 %); type: functional
# NCI-H446 [10] = assay: Induction of apoptosis in human NCI-H446 cells assessed as increase in cleaved-PARP protein expression at 0.1 to 100 nM measured after 24 to 48 hrs by Western blot analysis; type: functional, cell-based; details: dose 0.1-100 nM, time 24-48 hrs
# H69AR [11] = assay: Induction of apoptosis in human NCI-H69AR cells assessed as late apoptotic cells at 10 nM incubated for 24 hrs by AnnexinV-FITC/PI staining based flow cytometry analysis (reference value: 2.99 %); type: functional
# NCI-H446 [12] = assay: Antitumor activity against Irinotecan-resistant human NCI-H446 cells xenografted in BALB/c nude mouse assessed as tumor weight at 3 mg/kg, IG administered once a week and measured 3 times a week for 35 days relative to control; type: functional; details: NCI-H446, po, 840 h, time 35 day, read-out: TGI
# H69AR [13] = assay: Induction of apoptosis in human NCI-H69AR cells assessed as increase in cleaved-caspase 9 protein expression at 0.1 to 100 nM measured after 24 hrs by Western blot analysis; type: functional, cell-based; details: dose 0.1-100 nM
# H69AR [14] = assay: Induction of apoptosis in human NCI-H69AR cells assessed as dead cells at 1 nM incubated for 24 hrs by AnnexinV-FITC/PI staining based flow cytometry analysis (reference value: 1.92 %); type: functional
# NCI-H446 [15] = assay: Induction of apoptosis in human NCI-H446 cells assessed as reduction in XIAP mRNA level at 0.1 to 100 nM incubated for 24 hrs by RT-PCR analysis; type: functional, cell-based; details: dose 0.1-100 nM
# NCI-H446 [16] = assay: Induction of apoptosis in human NCI-H446 cells assessed as late apoptotic cells at 0.1 nM incubated for 24 hrs by AnnexinV-FITC/PI staining based flow cytometry analysis (reference value: 0.37 %); type: functional
# NCI-H446 [17] = assay: Induction of apoptosis in human NCI-H446 cells assessed as increase in cleaved-caspase 3 protein expression at 0.1 to 100 nM measured after 24 to 48 hrs by Western blot analysis; type: functional, cell-based; details: dose 0.1-100 nM, time 24-48 hrs
# NCI-H446 [18] = assay: Induction of apoptosis in human NCI-H446 cells assessed as reduction in Mcl-1 mRNA level at 0.1 to 100 nM incubated for 24 hrs by RT-PCR analysis; type: functional, cell-based; details: dose 0.1-100 nM
# NCI-H446 [19] = assay: Induction of apoptosis in human NCI-H446 cells assessed as inhibition of Mcl-1 protein expression incubated for 24 hrs by Western blot analysis; type: functional, cell-based; details: dose 0.1-100 nM
# H69AR [20] = assay: Induction of apoptosis in human NCI-H69AR cells assessed as late apoptotic cells at 1 nM incubated for 24 hrs by AnnexinV-FITC/PI staining based flow cytometry analysis (reference value: 2.99 %); type: functional
# H69AR [21] = assay: Induction of apoptosis in human NCI-H69AR cells assessed as early apoptotic cells at 1 nM incubated for 24 hrs by AnnexinV-FITC/PI staining based flow cytometry analysis (reference value: 0.35 %); type: functional
# 2008 = assay: Antiproliferative activity against human 2008 cells assessed as inhibition of cell growth incubated for 72 hrs by SRB assay; type: functional, cell-based; details: Homo sapiens, 2008, 72 h
# NCI-H446 [22] = assay: Antitumor activity against human NCI-H446 cells xenografted in BALB/c nude mouse assessed as reduction in large tumor growth at 3 mg/kg, IG administered for 31 days by electronic caliper method; type: functional, organism-based; details: time 31.0 day
# H69AR [23] = assay: Induction of apoptosis in human NCI-H69AR cells assessed as reduction in Mcl-1 mRNA expression at 0.1 to 100 nM incubated for 24 hrs by RT-PCR analysis; type: functional, cell-based; details: dose 0.1-100 nM
# Mus musculus [24] = assay: Downregulation of survivin protein expression in tumor of BALB/c mouse xenografted with human NCI-H446 cells at 0.75 mg/kg, IG administered intragastrically once a week for 28 days by western blot analysis; type: functional, organism-based; details: time 28.0 day
# Mus musculus [25] = assay: Downregulation of Mcl-1 protein expression in tumor of BALB/c mouse xenografted with human NCI-H446 cells at 0.75 mg/kg, IG administered intragastrically once a week for 28 days by western blot analysis; type: functional, organism-based; details: time 28.0 day
# NCI-H446 [26] = assay: Induction of apoptosis in human NCI-H446 cells assessed as reduction in survivin mRNA level at 0.1 to 100 nM incubated for 24 hrs by RT-PCR analysis; type: functional, cell-based; details: dose 0.1-100 nM
# NCI-H446 [27] = assay: Antitumor activity against human NCI-H446 cells xenografted in BALB/c nude mouse assessed as tumor growth inhibition at 0.75 mg/kg, IG administered once a week for 28 days by electronic caliper method relative to control; type: functional; details: NCI-H446, po, 672 h, time 28 day, read-out: TGI
# H69AR [28] = assay: Induction of apoptosis in human NCI-H69AR cells assessed as early apoptotic cells at 100 nM incubated for 24 hrs by AnnexinV-FITC/PI staining based flow cytometry analysis (reference value: 0.35 %); type: functional
# NCI-H69 [29] = assay: Induction of apoptosis in human NCI-H69 cells assessed as increase in cleaved-caspase 3 protein expression at 0.1 to 100 nM measured after 24 hrs by Western blot analysis; type: functional, cell-based; details: dose 0.1-100 nM
smiles,measurement,setting,value
CC[C@@]1(O)C(=O)OCc2c1cc1n(c2=O)Cc2c-1nc1cc3c(cc1c2-c1ccoc1)OCO3,Activity,[1],Toxic
same,Activity,NCI-H446 [2],Active
same,Activity,H69AR [3],Active
same,Activity,NCI-H446 [4],15.81%
same,Activity,NCI-H446 [5],13.08%
same,IC50,NCI-H446 [6],0.5 nM
same,IC50,SW-620,0.11 nM
same,IC50,SH-SY5Y,7.91 nM
same,IC50,NCI-H69 [7],14.6 nM
same,Activity,NCI-H446 [8],2.78%
same,Activity,H69AR [9],1.47%
same,Activity,NCI-H446 [10],Active
same,Activity,H69AR [11],12.48%
same,inhibition in vivo at 3 mg/kg,NCI-H446 [12],93.4%
same,Activity,H69AR [13],Active
same,Activity,H69AR [14],2.61%
same,Activity,NCI-H446 [15],Active
same,Activity,NCI-H446 [16],3.73%
same,Activity,NCI-H446 [17],Active
same,Activity,NCI-H446 [18],Active
same,inhibition,NCI-H446 [19],Active
same,Activity,H69AR [20],7.02%
same,Activity,H69AR [21],0.62%
same,IC50,2008,10.2 nM
same,Activity,NCI-H446 [22],Active
same,Activity,H69AR [23],Active
same,Activity,Mus musculus [24],Active
same,Activity,Mus musculus [25],Active
same,Activity,NCI-H446 [26],Active
same,inhibition in vivo at 0.75 mg/kg,NCI-H446 [27],40.4%
same,Activity,H69AR [28],1.73%
same,Activity,NCI-H69 [29],Active

# From ChEMBL document CHEMBL5108002, “Design, synthesis, and biological evaluation of novel 7-substituted 10,11-methylenedioxy-camptothecin derivatives against drug-resistant small-cell lung cancer in vitro and in vivo” (Eur J Med Chem, 2022)
